The record followed here is patent publication EP4714948A1, “COMPOUND USED FOR EGFR PROTEIN DEGRADATION, AND USE THEREOF” (TYK Medicines, Inc., priority 2023, dated 2024).

The target in data set [1] is EGFR in BAF3-DTC (Baf3-19del-T780M-C797S) (Homo sapiens, UniProt P00533, C797S/DEL746-750/T790M). Kind of data set: EGFR PROTAC HTRF experiment (total EGFR degradation). It is filed as cell-based. The note with it: BAF3-DTC cells, 16 hours incubation. In general terms: In TR-FRET formats the signal depends on donor and acceptor labels being close together.
In data set [2] the test system is H1975. Kind of data set: Cell antiproliferative assay (CTG, 72 h). It counts as cell-based. The conditions noted are these: Homo sapiens, NCI-H1975, H1975 (EGFR T790M/L858R). As to the method:
(§1) H1975 has EGFR T790M/L858R dual mutation, PC-9 has EGFR exon 19 deletion mutation, and HCC827 has exon 19 deletion mutation. CellCounting Lite 2.0, Trypsin EDTA, 37 °C CO2 incubator, cell counter, EnVision Serial No.1050454.
(§2) • (A) Trypsin EDTA was used to digest log-phase cells, medium was added to terminate the digestion reaction, and a cell suspension was prepared by blowing and mixing with a pipette. • (B) Cell concentration was determined using Vi-cell, and a suspension of 15,000-25,000 cells per milliliter was made depending on the purpose of the experiment and the characteristics of the cells. • (C) After the cell suspension was ready, it was gently mixed and each well was added with 100µL so that the cell density to be tested was 1,500- 2,500 per well.
(§3) • A) About 2 mg of compound was weighed, and the volume of DMSO required was calculated according to the formula: compound mass (mg)*compound purity (%)/compound molecular weight*1000. • (B) The inoculated cell culture plates were incubated in an incubator. About 24 hours later, compounds were added at gradient concentrations. • (C) 10mM of compound reservoir solution was diluted to […] with medium, and […] of the compound solution was added sequentially to the second column of the deep-well plate, and […] of medium containing 0.5% DMSO was added to the third to eleventh columns. • D) Gradient dilution: 125 µl of solution was pipetted from the second column and added to the third column, after mixing; another 125 µl of solution was pipetted from the third column and added to the fourth column, and the operation was repeated until the tenth column. • (E) 25 µl of compound was pipetted from the deep-well plate into a 96-well culture plate using a multichannel pipette, and each compound was run in triplicate on the 96-well plate. A 1:4 concentration gradient was established on the 96-well plate, with a final highest concentration of 10,000 nM.
(§4) • (A) 96-well plates were incubated in an incubator for 72 h. The effect of the compounds was observed under an inverted microscope. • (B) 25 µl of CTG solution was added to each well. The plate was incubated on a shaker for 10 minutes and the OD value of each well was read.
(§5) The survival rate ( % Cell Viability) was calculated using the following formula: %Cell Viability = 100% × (Lum_Sample−Lum_LC)/(Lum_HC−Lum_LC) [formula] • Lum_HC: Cell reading of 0.1% DMSO control group • Lum_Sample: Cell readings of compound addition group • Lum_LC: Reading of blank medium • IC50 values were obtained by curve fitting using GraphPad Prism 8 software.

In data set [3] the test system is HCC827. Kind of data set: Cell antiproliferative assay (CTG, 72 h). It counts as cell-based. The note with it: Homo sapiens, HCC827 (exon 19 deletion). As for the experimental part: as §1, §2, §3, §4, §5
The subject of data set [4] is PC-9. In words: Cell antiproliferative assay (CTG, 72 h). It counts as cell-based. The note with it: Homo sapiens, PC-9 (EGFR exon 19 deletion). As for the experimental part:
as §1, §2, §3, §4, §5

Data set [5] deals with EGFR in BAF3-LTC (Baf3-L858R-T780M-C797S) (Homo sapiens, UniProt P00533, C797S/L858R/T790M). Kind of data set: EGFR PROTAC HTRF experiment (total EGFR degradation). It is filed as cell-based. The conditions noted are these: BAF3-LTC cells, 16 hours incubation.
The nature of data set [6]: Pharmacokinetic test on male SD rats. It counts as in vivo. The conditions noted are these: gavage (p.o.), 10 mg/kg, plasma; for AUC(0-inf) / AUC(0-t) / Cmax / MRT last / Tmax: rat, po. As to the method:
Healthy adult SD rats, male, a total of 3, 6-8 weeks old; Weighing 200-300 grams.
EDTA-Na2 anticoagulant: 11.2 g of EDTA-Na2 was weighted and placed into a reagent bottle. 100 mL of physiological saline was added and the mixture was shaken until completely dissolved. After preparation, the solution was aliquoted into 1.5 mL centrifuge tubes, each containing approximately 20 uL, for use in whole blood sample collection.
Approximately 10 mg of the test sample was accurately weighed. DMSO accounting for 10% of the total volume was added to dissolve the sample. Subsequently, 0.5% MC solvent accounting for 90% of the total volume was slowly added while stirring. The mixture was sonicated and vortexed evenly, and a visually homogeneous preparation solution was obtained, with a concentration of 1 mg/mL. This solution should be freshly prepared immediately before use.
0.2 mL of the sample was pipetted into a 1.5 mL centrifuge tube and stored at -80°C for concentration analysis of the dosing solution.
Animals were kept in rat cages and fasted for no less than 10 hours on the day before the experiment, but were allowed to drink water. The animals were individually weighed and marked on their tails. Prior to dosing, blank blood samples were collected from each animal via the tail vein.
• Administration route: gavage (p.o.) • Dosage concentration: 1mg/ml • Dosage: 10 mg/kg • Dosage volume: 10 mL/kg
Operation process: The rat was grasped with a left hand protected by a bite-resistant glove and held in an upright position. The gavage needle was inserted through the mouth and advanced towards the pharynx. The needle was advanced gently, ensuring no significant resistance was felt. The drug was then injected into the stomach.
At 0.5 h, 1 h, 2 h, 4 h, 6 h, 8 h, 12 h, and 24 h post-dosing, 0.1-0.2 mL of whole blood was collected from each test animal into EDTA-Na2 anticoagulant tubes. The tubes were mixed by inverting 3-4 times. The samples were centrifuged at 2000 × g and 4 °C for 5 minutes. The upper plasma layer was to separated, promptly transferred to -80 °C for storage until analysis. The blood was collected via tail vein.
A quantitative detection method for the test compound was established using a Shimadzu liquid chromatography system and a Triple Quad™ 6500+ AB mass spectrometry (MS) system. This method was used to analyze the concentration of the parent drug in plasma. The variation of the analysis results was controlled using quality control (QC) samples, and the accuracy of the QC samples was required to be within the range of 80%-120%.
The main pharmacokinetic parameters were calculated using the non-compartmental model (NCA) with the WinNonlin Phoenix software. These parameters include: area under the concentration-time curve (AUC(0-t) and AUC(0-∞)), elimination half-life (T1/2), maximum plasma concentration (Cmax), and time to reach maximum plasma concentration (Tmax), etc.

Sequence of EGFR in BAF3-DTC (Baf3-19del-T780M-C797S) (P00533 with tags, fused parts or gaps DEL746-750/T790M/C797S): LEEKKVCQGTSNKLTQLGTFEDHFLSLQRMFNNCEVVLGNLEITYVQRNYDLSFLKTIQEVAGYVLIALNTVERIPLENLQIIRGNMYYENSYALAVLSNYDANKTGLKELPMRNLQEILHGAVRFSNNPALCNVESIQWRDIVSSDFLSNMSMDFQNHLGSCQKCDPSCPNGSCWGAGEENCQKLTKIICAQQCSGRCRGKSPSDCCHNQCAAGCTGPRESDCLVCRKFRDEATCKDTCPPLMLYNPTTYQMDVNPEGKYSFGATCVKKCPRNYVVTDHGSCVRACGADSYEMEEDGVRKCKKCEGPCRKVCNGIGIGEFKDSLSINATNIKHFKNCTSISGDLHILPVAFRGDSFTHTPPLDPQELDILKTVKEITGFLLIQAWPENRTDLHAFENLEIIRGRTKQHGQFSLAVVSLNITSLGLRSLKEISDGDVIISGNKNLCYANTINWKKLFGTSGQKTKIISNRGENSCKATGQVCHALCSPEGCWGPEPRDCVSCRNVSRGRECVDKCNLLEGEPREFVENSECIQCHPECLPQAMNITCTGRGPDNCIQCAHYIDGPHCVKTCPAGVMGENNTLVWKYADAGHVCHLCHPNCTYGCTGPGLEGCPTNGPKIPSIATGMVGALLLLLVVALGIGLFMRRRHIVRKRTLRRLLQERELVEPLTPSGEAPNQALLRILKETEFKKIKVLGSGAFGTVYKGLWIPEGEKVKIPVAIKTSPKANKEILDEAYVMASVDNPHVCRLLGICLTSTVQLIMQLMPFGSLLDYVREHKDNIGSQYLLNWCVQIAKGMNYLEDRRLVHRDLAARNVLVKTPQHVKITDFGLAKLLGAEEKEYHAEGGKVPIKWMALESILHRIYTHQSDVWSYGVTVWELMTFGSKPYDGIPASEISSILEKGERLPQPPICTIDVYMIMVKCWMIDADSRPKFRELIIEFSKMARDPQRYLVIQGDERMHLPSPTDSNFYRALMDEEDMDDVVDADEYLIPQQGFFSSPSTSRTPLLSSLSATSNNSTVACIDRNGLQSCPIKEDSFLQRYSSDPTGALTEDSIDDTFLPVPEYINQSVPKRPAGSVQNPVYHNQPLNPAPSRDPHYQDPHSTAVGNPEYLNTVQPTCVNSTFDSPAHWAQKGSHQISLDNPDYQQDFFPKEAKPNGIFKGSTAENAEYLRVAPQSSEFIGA
Sequence of EGFR in BAF3-LTC (Baf3-L858R-T780M-C797S) (P00533 25-1210 T790M/C797S/L858R): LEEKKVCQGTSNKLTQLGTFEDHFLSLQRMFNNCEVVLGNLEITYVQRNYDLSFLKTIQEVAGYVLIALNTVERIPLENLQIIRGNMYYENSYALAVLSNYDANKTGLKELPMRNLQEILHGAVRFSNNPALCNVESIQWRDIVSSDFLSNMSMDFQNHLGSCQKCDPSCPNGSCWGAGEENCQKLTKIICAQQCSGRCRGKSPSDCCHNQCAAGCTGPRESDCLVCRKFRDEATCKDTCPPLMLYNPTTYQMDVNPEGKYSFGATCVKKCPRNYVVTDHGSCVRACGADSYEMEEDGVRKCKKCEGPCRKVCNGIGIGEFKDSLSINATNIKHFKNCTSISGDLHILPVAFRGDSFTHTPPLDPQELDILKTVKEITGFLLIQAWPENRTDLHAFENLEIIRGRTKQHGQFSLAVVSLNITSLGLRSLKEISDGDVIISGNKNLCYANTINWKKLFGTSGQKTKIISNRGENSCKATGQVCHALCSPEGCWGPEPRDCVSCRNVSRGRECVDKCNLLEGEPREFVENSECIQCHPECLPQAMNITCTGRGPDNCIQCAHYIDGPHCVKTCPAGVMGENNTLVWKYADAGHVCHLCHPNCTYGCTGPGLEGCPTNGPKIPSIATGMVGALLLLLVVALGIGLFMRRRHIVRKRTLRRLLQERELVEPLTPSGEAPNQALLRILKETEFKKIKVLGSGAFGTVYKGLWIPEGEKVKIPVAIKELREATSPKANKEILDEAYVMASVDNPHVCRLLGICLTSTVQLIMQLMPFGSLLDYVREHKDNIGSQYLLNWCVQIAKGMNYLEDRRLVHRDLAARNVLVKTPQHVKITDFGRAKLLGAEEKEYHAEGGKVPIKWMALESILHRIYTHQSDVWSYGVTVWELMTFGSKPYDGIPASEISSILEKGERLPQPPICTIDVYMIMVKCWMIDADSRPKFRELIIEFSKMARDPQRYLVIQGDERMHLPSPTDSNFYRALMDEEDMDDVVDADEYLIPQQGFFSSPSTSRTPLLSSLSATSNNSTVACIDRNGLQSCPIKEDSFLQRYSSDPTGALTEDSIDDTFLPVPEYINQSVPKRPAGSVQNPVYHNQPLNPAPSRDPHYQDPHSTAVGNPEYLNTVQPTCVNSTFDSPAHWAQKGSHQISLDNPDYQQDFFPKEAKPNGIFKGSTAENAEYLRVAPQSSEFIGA

For the compound `CCc1cc(Nc2ncc(Cl)c(Nc3ccccc3C(=O)NC)n2)c(OC)cc1N1CCN(C(=O)CC2(O)CCN(c3ccc(NC4CCC(=O)NC4=O)cc3F)CC2)CC1` (centres unmarked) [Compound T-037], in data set [1], the DC50 was 100 to 1000 nM and the Dmax is 50 to 70%. The IC50 in data set [2] lay in the range of 10 to 100 nM. Also, the IC50 in data set [3] is 100 to 1000 nM. For the same compound, the IC50 in data set [4] was in the range of 100 to 1000 nM. In data set [5], this compound yielded a DC50 of 100 to 1000 nM and a Dmax of 50 to 70%. For the same compound, in data set [6], the HL_ worked out at 2.61 h, the AUC(0-inf) was determined as 24400 ng·h/mL, the AUC(0-t) came to 24000 ng·h/mL and the highest level (Cmax) was 2290 ng/mL. For the same compound, in data set [6], the mean residence time (MRT last) is 7.49 h and the Tmax came to 2.67 h.
As for `CCc1cc(Nc2ncc(Cl)c(Nc3ccccc3C(=O)NC)n2)c(OC)cc1N1CCN(C(=O)CN2CCC(c3ccc(NC4CCC(=O)NC4=O)cc3F)CC2)CC1` (centres unmarked) [Compound T-067], in data set [1], the DC50 was in the range of 10 to 100 nM and the Dmax was 70 to 100%. In addition, the IC50 in data set [2] was under 10 nM. The compound further displayed an IC50 in data set [3] of 100 to 1000 nM. The same compound yielded an IC50 in data set [4] of 100 to 1000 nM. Also, in data set [5], the DC50 was in the range of 10 to 100 nM and the Dmax was 70 to 100%. In data set [6], the HL_ was 4.39 h, the AUC(0-inf) stood at 11300 ng·h/mL, the AUC(0-t) is 11000 ng·h/mL and the Cmax worked out at 1020 ng/mL. Moreover, in data set [6], the mean residence time MRT last worked out at 7.78 h and the Tmax amounted to 4 h.

In general, DC50 refers to the midpoint of the concentration-degradation curve. What is called Dmax is the largest share of the target that was removed. Low values mean a partial loss of target, high ones a fuller loss of target. Broadly, the IC50 is the concentration that gives 50% inhibition. The low end stands for inhibition by little substance, the high end for a need for much substance. A word on the AUC(0-inf): it is the area under the concentration-time curve extrapolated to infinity. Low values mean low exposure, high ones high exposure. One may read the AUC(0-t) as the area under the concentration-time curve up to a stated or last time point. One may read the Cmax as the peak of the concentration-time curve. For orientation: MRT last means a mean duration of stay, worked out from the concentration-time curve. By Tmax is commonly meant the time from dosing to the highest level.
